From US20240398830A1, “COMPOSITIONS AND USES THEREOF FOR TREATMENT OF NEUROLOGICAL DISORDERS” (UNIVERSITY OF SOUTH FLORIDA, priority 2021, published 2024)

Assays:
Type in all cases: cell-based
FKBP51 [1] = test: Immunoblot analysis of dexamethasone induced FKBP51 levels in H4 human neuroglioma cell line; conditions: 10 μM compound, dexamethasone containing media, 24 h, immunoblot (FIG. 1)
Protocol: FIGS. 1A-1B show qPCR (FIG. 1A) and immunoblot analysis (FIG. 1B) of FKBP51 levels in cultures of H4 human neuroglioma cell line treated with methyl acetate vehicle (MeOAc) or ethanol vehicle (ETOH) or 10 μM 15-deoxy-12,14-prostaglandin J2 (J2) or 10 μM 9-nitro oleic acid (9N), or 10 μM 10-nitro oleic acid (ION) in control (dimethyl sulfoxide; DMSO) or dexamethasone (Dex) containing media for 6 h and 24 h. Cultures incubated with treatments for 6 h were used for RNA analysis whereas cultures incubated with treatments for 24 h were used for protein analysis. Bars represent mean±SEM; n=3 independent experiments.

FKBP51 [2] = test: Immunoblot analysis of dexamethasone induced FKBP51 levels in HT-22 mouse hippocampal neuronal cell line; conditions: 20 μM compound, 500 nM dexamethasone, immunoblot (FIG. 2)
[3] = test system: glucocorticoid receptor response element (GRE); test: GRE reporter luciferase assay in dexamethasone treated HeLa cells; conditions: dexamethasone treated HeLa cells transfected with empty vector or FKBP51 vector (FIG. 3)

With CCCCCCCC/C(=C\CCCCCCCC(=O)O)[N+](=O)[O-] [10-nitro oleic acid, 10-nitro-9E-octadecenoic acid] the “dexamethasone induced FKBP51 protein levels” value (FKBP51 [1]) was “inhibit dexamethasone induced FKBP51 protein levels”, the “dexamethasone induced FKBP51 protein levels” value (FKBP51 [2]) was “inhibit dexamethasone induced FKBP51 protein levels” and the “glucocorticoid receptor response (GRE reporter luciferase)” value (“glucocorticoid receptor response” for short) [3] was “alter glucocorticoid receptor response”.
CCCCCCCC/C=C(\CCCCCCCC(=O)O)[N+](=O)[O-] [9-nitro oleic acid, 9-nitro-9E-octadecenoic acid] was tested, and the “dexamethasone induced FKBP51 protein levels” value (FKBP51 [1]) was “inhibit dexamethasone induced FKBP51 protein levels”, the “dexamethasone induced FKBP51 protein levels” value (FKBP51 [2]) was “inhibit dexamethasone induced FKBP51 protein levels” and the “glucocorticoid receptor response” value [3] was “alter glucocorticoid receptor response”.
In the case of CCCCC/C=C/C=C1/C(=O)C=C[C@@H]1C/C=C\CCCC(=O)O [15-deoxy-12,14-prostaglandin J2, 15-deoxy-Δ12,14-prostaglandin J2], the “dexamethasone induced FKBP51 protein levels” value (FKBP51 [1]) is reported as “inhibit dexamethasone induced FKBP51 protein levels”, the “dexamethasone induced FKBP51 protein levels” value (FKBP51 [2]) is reported as “inhibit dexamethasone induced FKBP51 protein levels” and the “glucocorticoid receptor response” value [3] is reported as “alter glucocorticoid receptor response”.
